Laboratory results as given in US7122529B2, “Compounds that release nitric oxide at controlled rates upon photolysis” (The Johns Hopkins University, priority 2001, dated 2006).
Marks after values point to notes of the source that are not given here.

What was measured:
Assay type in all cases: physicochemical
[1] = Rate of NO release upon photolysis compared with thermal decay of 1 and 20; details: for rate of photochemical release of NO versus thermal decomposition of 1 and 20: 10 seconds photolysis, Xenon arc lamp long-pass 324 nm filter, 10 mM phosphate and acetate buffers
Procedure: This example describes the general procedure for the determination of the rate of NO release from compounds 6 and 9 upon photolysis. Stock solutions of compounds 6 and 9 were prepared to be 100 μM in acetonitrile, and of these 15 μL aliquots were diluted into to […] of aqueous solutions at the appropriate pH (10 mM phosphate and acetate buffers). The probe was allowed to equilibrate in the sample solution before 10 seconds of photolysis using a Xenon arc lamp with a long-pass 324 nm filter. The rate of NO release was then monitored over the appropriate time span. For comparison, the thermal decay of both compounds 1 and 20 were recorded under the same conditions as those of the photochemical experiments.
As shown, this pH dependence follows the same pH dependence for the release from authentic samples of diazeniumdiolate 1.

[2] = Electrochemical quantification of NO / diazeniumdiolate released upon photolysis of O2-benzyl diazeniumdiolates
Procedure: Analysis of the above described organic products produced following photolysis of the compounds was studied in argon and oxygen-saturated 90%–99% aqueous acetonitrile. Quantification of NO released upon photolysis was performed electrochemically with an inNO Nitric Oxide Measuring System using an amiNO-2000 probe (Innovative Instruments Inc., Tampa, Fla.). The amiNO-2000 probe was calibrated using ascorbic acid/sodium nitrite before and after NO measurements were conducted. In order to differentiate NO production arising from diazeniumdiolate from non-diazeniumdiolate derived NO, the dependence of diazeniumdiolate decomposition rate on pH was utilized. […] Aqueous solutions at pH 11 of the compounds were irradiated and then analyzed for NO. Any NO detected under these conditions must arise from a non-diazeniumdiolate pathway. For all compounds examined the amount of NO formed from such a pathway was negligible. To liberate NO associated with the photoreleased diazeniumdiolate, solutions were acidified with 1.0 M H2SO4 to a pH of between 2–3. In each case, the yield of NO was determined from a series of measurements following photolysis to a range of percent conversions. […] NO yields determined from these experiment along with the observation that compound 1 dissociates to give 1.5 equivalents of NO were used to derive yields of photoreleased diazeniumdiolates from the compounds studied.
Since Path B is favored with the addition of strong π-donating meta substituents, the dihydroxybenzyl derivative of compound 3, n=0, Y=H, R1=R3=R5=H, R2=R4=OH (O^2-3,5-dihydroxybenzyl substituted diazeniumdiolate) was studied in further detail. Consistent with the expected large effect of oxyanionic meta substitution, when compound 3, n=0, Y=H, R1=R3=R5=H, R2=R4=OH is irradiated (Rayonet, 300 nm) in an aqueous solution of pH 11.2 (containing 1% acetonitrile) to 5–35% conversion, the amount of NO detected corresponded to a yield of photoreleased diazeniumdiolate compound 1 of approximately 92%. A comparison of selected results observed with O^2-substituted diazeniumdiolate derivatives having the backbone of compound 3 is shown in FIG. 1. After photolysis of the compound (t=0 sec) there is no nitric oxide production.

[3] = Quantum yields of photolysis of compounds 2 and 3 (actinometry)
[4] = Diazeniumdiolate / NO released upon photolysis of compounds 6 and 9 (electrochemical NO probe); details: 0.498 μM, 100% conversion; for % NO: Xenon arc lamp with long-pass 324 nm filter, NO liberated by acidification; for % Diazeniumdiolate: pH 12.2, Xenon arc lamp with long-pass 324 nm filter, derived with 1.5 / 1.8 eq NO
Procedure: This example describes a general procedure for the determination of diazeniumdiolate released upon photolysis of compounds 6 and 9. The amiNO-700 probe was calibrated using ascorbic acid/sodium nitrite before and after NO measurements were recorded. Calibration curves were prepared in order to relate current (detected by the instrument) with concentration of NO. Stock solutions of compounds 6 and 9 were prepared to be 100 μM in acetonitrile, and of these 15 μL aliquots were diluted into to 3 mL of a pH 12.2 aqueous solution. The resulting 0.498 μM solutions were photolyzed with a Xenon arc lamp and a long-pass 324 nm filter for lengths of time appropriate to reach 100% conversion (6–7 minutes for most compounds at this concentration). Under these basic conditions any diazeniumdiolate generated photochemically is stable, and neither sodium-1-(N,N-diethylamino)-1-diazen-1-ium-1,2-diolate (compound 1) or sodium-1-(piperidin-1-yl)-diazen-1-ium-1,2-diolate (compound 20) absorbs at wavelengths above 324 nm. No NO was measured electrochemically at this pH, indicating there are no photochemical paths that lead directly to NO. The NO associated with the photochemically generated diazeniumdiolate was liberated by the addition of 10 μL of 1.0 M sulfuric acid (final solution pH's were typically 2–3. Using the calibration curve and the fact that the amount of NO released upon thermal decomposition of compounds 1 and 20 was calculated to be 1.5 and 1.8 eq. respectively, the absolute percentage of diazeniumdiolate generated upon photolysis of compounds 6 and 9 was determined. FIG. 2 depicts the amount of nitric oxide produced upon photolysis from a selection of 1-methylnaphthyl and 2-methylnaphthyl-O^2-substituted diazeniumdiolates having a backbone of compounds 6 and 9.
Compounds 6 and 9 are soluble in 99% aqueous acetonitrile up to 20 μM and are thermally stable indefinitely at pH 4–11, 25° C. at this concentration. Analysis of the products following photolysis (Rayonet, 300 or 350 nm, Xenon arc lamp with a long-pass 324 nm filter) of compounds 6 and 9 in both argon- and oxygen-saturated 99% aqueous acetonitrile is summarized in Table 2 below. Quantification of NO released upon photolysis was performed electrochemically with an inNO Nitric Oxide Measuring System using an ami-700 probe (Innovative Instruments Inc., Tampa, Fla.).

[5] = Quantum yields of photolysis of compounds 6 and 9; details: ~20 μM in 90–95% aqueous acetonitrile, below 40% conversion
[6] = Lifespan of diazeniumdiolate 1 as a function of pH; details: room temperature
[7] = Absolute amount of NO released from thermal decomposition of diazeniumdiolates 1 and 20; details: 0.15–0.66 μM in aqueous solution pH 12.2, acidified with 1.0 M sulfuric acid
Procedure: Determination of the absolute amount of NO released from the thermal decomposition of sodium-1-(N,N-diethylamino)-diazen-1-ium-1,2-diolate compound 1, and sodium-1-(piperidin-1-yl)-diazen-1-ium-1,2-diolate compound 20.
Stock solutions of both compounds 1 and 20 were prepared to be 100 μM in aqueous solution at pH=12.2. A series of μL aliquots of the stock solution were diluted into 3 mL of aqueous solution at pH=12.2 resulting in an array of concentrations from 0.15–0.66 μM. The probe was allowed to equilibrate in the sample solutions before the addition of 10 μL of 1.0 M sulfuric acid. The final concentration of NO in solution after complete decomposition was determined by the calibration curve, and a linear plot of NO released vs. initial concentration was obtained. By this method it was determined that compounds 1 and 20 release 1.5 and 1.8 eq. of NO respectively.

[8] = H2O/CH3CN 99/1, photolysis 300 nm, based on percent reactant converted, NO measured and 1.5 eq NO per diazeniumdiolate 1, estimated error ±5%
[9] = solvent H2O/CH3CN 0/100, photolysis 254 nm
[10] = solvent H2O/CH3CN 0/100, photolysis 300 nm
[11] = solvent H2O/CH3CN 99/1, photolysis 254 nm
[12] = solvent H2O/CH3CN 99/1, photolysis 300 nm

COc1cc2ccccc2cc1/C=C/CON=[N+]([O-])N1CCCCC1
rate of photochemical release of NO versus thermal decomposition of 1 and 20 [1]: consistent with the known thermal decays

CCN(CC)[N+]([O-])=NOCc1cccc(OC)c1 [3 (R2 = MeO, R4 = H), O^2-(3-methoxybenzyl)-1-(N,N-diethylamino)-diazen-1-ium-1,2-diolate]
% Diazeniumdiolate [2, 8]: 6%

CCN(CC)[N+]([O-])=NOCc1cccc(N(C)C)c1 [3 (R2 = NMe2, R4 = H), O^2-(3-dimethylaminobenzyl)-1-(N,N-diethylamino)-diazen-1-ium-1,2-diolate]
Quantum Yield [3, 9]: 0.60 | Quantum Yield [3, 10]: 0.17 | Quantum Yield [3, 11]: 0.25 | Quantum Yield [3, 12]: 0.04 | % Diazeniumdiolate [2, 8]: 35%

CCN(CC)[N+]([O-])=NOCc1cc(OC)cc(OC)c1 [3 (R2 = R4 = MeO), O^2-(3,5-dimethoxybenzyl)-1-(N,N-diethylamino)-diazen-1-ium-1,2-diolate]
Quantum Yield [3, 9]: 0.35 | Quantum Yield [3, 11]: 0.17 | % Diazeniumdiolate [2, 8]: 10%

CCN(CC)[N+]([O-])=NOCc1cc(N(C)C)cc(N(C)C)c1 [3 (R2 = R4 = NMe2), O^2-(3,5-bis-dimethylaminobenzyl)-1-(N,N-diethylamino)-diazen-1-ium-1,2-diolate]
Quantum Yield [3, 9]: 0.53 | Quantum Yield [3, 10]: 0.18 | Quantum Yield [3, 11]: 0.26 | Quantum Yield [3, 12]: 0.05 | % Diazeniumdiolate [2, 8]: 47%

CCN(CC)[N+]([O-])=NOCc1cc(O)cc(O)c1 [3 (R2 = R4 = OH), O^2-(3,5-dihydroxybenzyl)-1-(N,N-diethylamino)-diazen-1-ium-1,2-diolate]
Quantum Yield [3, 12]: 0.87 | % Diazeniumdiolate ([2]; H2O/CH3CN 99/1, photolysis 300 nm at pH 11.2, 5–35% conversion): 92^d %

CCN(CC)[N+]([O-])=NOCc1cccc2ccccc12 [6 (n = 0, Y = R1–R7 = H), O^2-(1-naphthylmethyl)-1-(N,N-diethylamino)-1-diazen-1-ium-1,2-diolate]
% NO [4]: 1.5% | % Diazeniumdiolate [4]: 1% | Quantum Yield ([5]; 300 nm (rayonet reactor)): 0.01^a

CCN(CC)[N+]([O-])=NOC/C=C/c1cccc2ccccc12 [6 (n = 1, Y = R1–R7 = H)]
% NO [4]: 37.5% | % Diazeniumdiolate [4]: 25% | Quantum Yield ([5]; 300 nm (rayonet reactor)): 0.12^a

CCN(CC)[N+]([O-])=NOCc1cc2ccccc2cc1OC [9 (n = 0, Y = R1, R3–R7 = H, R2 = OMe), O^2-(3-methoxy-2-naphthylmethyl)-1-(N,N-diethylamino)-diazen-1-ium-1,2-diolate]
% NO [4]: 30% | % Diazeniumdiolate [4]: 20% | % Diazeniumdiolate ([4]; listed as 9 (where n=0, Y=R1, R3–R7=H, R2=OMe, X=diethylamino)): 50% | Quantum Yield ([5]; 300 nm (rayonet reactor)): 0.02^a

CCN(CC)/[N+]([O-])=N/[O-].[Na+] [Compound 1, sodium-1-(N,N-diethylamino)-diazen-1-ium-1,2-diolate]
rate of release of nitric oxide from photochemically generated diazeniumdiolate ([1]; FIG. 5, varied pH): pH dependent | lifespan ([6]; pH 3): several seconds | lifespan ([6]; pH 11): several hours | NO released upon thermal decomposition [7]: 1.5 eq.

[Na+].[O-]/N=[N+](\[O-])N1CCCCC1 [Compound 20, sodium-1-(piperidin-1-yl)-diazen-1-ium-1,2-diolate]
NO released upon thermal decomposition [7]: 1.8 eq.

CCN(CC)[N+]([O-])=NOC/C=C/c1cc2ccccc2cc1OC [O^2-(3-(3-methoxy-2-naphthyl)-E-2-propenyl)-1-(N,N-diethylamino)-diazen-1-ium-1,2-diolate]
% Diazeniumdiolate [4]: 50% | rate of photochemical release of NO versus thermal decomposition of 1 and 20 [1]: consistent with the known thermal decays

CCN(CC)[N+]([O-])=NOC/C=C/c1cccc2c(OC)ccc(OC)c12 [O^2-(3-(5,8-dimethoxy-1-naphthyl)-E-2-propenyl)-1-(N,N-diethylamino)-diazenen-1-ium-1,2-diolate]
% NO [4]: 143% | % Diazeniumdiolate [4]: 95% | Quantum Yield ([5]; 355 nm (ND:YAG laser)): 0.66^b

CCN(CC)[N+]([O-])=NOCc1cccc2c(OC)ccc(OC)c12 [O^2-(5,8-dimethoxy-1-naphthylmethyl)-1-(N,N-diethylamino)-diazen-1-ium-1,2-diolate]
% NO [4]: 60% | % Diazeniumdiolate [4]: 40% | Quantum Yield ([5]; 355 nm (ND:YAG laser)): 0.12^b

CCN(CC)[N+]([O-])=NOCc1ccc2c(OC)ccc(OC)c2c1 [O^2-(5,8-dimethoxy-2-naphthylmethyl)-1-(N,N-diethylamino)-diazen-1-ium-1,2-diolate]
% NO [4]: 51% | % Diazeniumdiolate [4]: 34% | Quantum Yield ([5]; 355 nm (ND:YAG laser)): 0.05^b
